Reference: PubChem BioAssay AID179 (DTP/NCI, 2004)
Activity calls are given as the source filed them.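 The calls were made as follows: active = compounds giving half or more protection of infected cells from virus-caused growth loss, again on retest; inactive = the rest.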 Where a SMILES comes first, the peptide text is derived from it. [ ]: non-standard residue; d: D form. The star is where a group is joined. Phe(4-NO2) = N[CH](Cc1ccc([N+](=O)[O-])cc1)C(=O)O; Cbz = O=C(OCc1ccccc1)*

Test system: CEM cells HIV-1 protection, formazan growth assay
Assay: NCI AIDS Antiviral Assay
Settings: for IC50: measured here: growth of uninfected CEM cells
Procedure, shortened: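 Category rules: moderately active means at least 50% protection on retest, and confirmed active means 100% protection reproducibly. The underlying data came from a formazan growth assay in HIV-1-infected CEM cells.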

Structure (SMILES)	EC50 [µM]	IC50 [µM]	outcome
COc1cccc(C2ON=C(c3ccccc3)N2C23CC4CC(CC(C4)C2)C3)c1 (configuration not stated)	> 200	58.9	–
CCC(c1ccccc1)c1noc(CCN(CC)CC)n1 (configuration not stated)	> 200	33.9	–
CC(=O)OCC1OC(OC(C)=O)C(NC#N)C(OC(C)=O)C1OC(C)=O (configuration not stated)	> 676	61.7	–
COc1ccc(C2Nc3cc(Cl)ccc3NC3=C2C(=O)CC(C)(C)C3)cc1 (configuration not stated)	> 200	83.2	–
CCCCCCCCCCCC(=O)C1=C(O)C(O)CCC1=O (configuration not stated)	–	–	inactive
CC(C)(C)OC(=O)NC(Cc1ccccc1)/C(O)=C(\C#N)c1ccc([N+](=O)[O-])cc1 (configuration not stated)	> 200	83.2	–
CC1=C(C)C2(C#N)C(=O)N3C(=NC(c4ccco4)NC3c3ccco3)C2(C#N)C(c2ccco2)N1 (configuration not stated)	> 200	> 200	–
CC(C)CCCC(C)C1CCC2[C@@H]3CCC4C[C@@H](CCCC(c5cc(Cl)c(O)c(C(=O)O)c5)c5cc(Cl)c(O)c(C(=O)O)c5)CC[C@]4(C)C3CC[C@]12C (some centres not stated)	18.2	309	–
O=C(c1ccccc1)c1cccc(C(=O)c2ccccc2)c1	> 25.1	> 25.1	–
COc1cccc2c(=O)c3c(O)c4cc(N(C)C)ccc4c(OC(C)=O)c3oc12	> 200	8.91	–
Cc1cc(=O)[nH]c(NN2C(Cl)C(=O)C2c2ccc([N+](=O)[O-])cc2)n1 (configuration not stated)	> 53.7	8.51	–
Cc1cc2c(C(C)C)c(O)c(O)c(C=O)c2c(O)c1-c1c(C)cc2c(C(C)C)c(O)c(O)c(C=Nc3ccc(Cc4ccc(N)cc4)cc3)c2c1O	5.5	44.7	–
Nc1nc(Cl)c(C=O)c(NCC2(CO)CC(CCc3ccccc3)C2)n1 (configuration not stated)	> 200	3.98	–
COC(=O)c1cc(C(=O)Nc2cc(Cc3cc(NC(=O)c4ccc(OC)c(C(=O)OC)c4)c(OC)c(C(=O)OC)c3)cc(C(=O)OC)c2OC)ccc1OC	> 200	> 200	–
COC(=O)C1=COC(OC2OC(CO)C(O)C(O)C2O)C2C1C=C[C@@]21C=C([C@@H](C)OC(=O)/C=C/c2ccc(O)cc2)C(=O)O1 (some centres not stated)	> 295	158	–
CCCN(CCC)C(=O)C(=O)c1c(N)[nH]n(-c2ccccc2)c1=O	–	–	inactive
CC1=C(O)C(=O)C(C)=C(O)C1=O	> 513	9.33	–
COc1ccc(-c2c(-c3ccccc3)c(C)nc3[nH]c(=S)[nH]c(=S)c23)cc1OC	> 200	43.7	–
CC1(n2nc(-c3ccccc3)n(-c3ccccc3)c2=O)CSC1	> 41.7	> 41.7	–
N#Cc1cn(C2OC(CO)C(O)C2O)c2ncnc(N)c12 (configuration not stated)	> 0.2	0.00151	–
O=C(Nc1ccc(Cl)cc1)Nc1ccc(Cl)c(C(F)(F)F)c1	> 200	2.69	–

Structure (SMILES)	EC50 [µM]	IC50 [µM]	outcome
COc1cccc(/C=N/[N-]C(N)=O)c1[O-].[Co+2].[OH3+].c1ccncc1	> 14.5	> 14.5	–
O=c1cn[nH]c2ccc(F)cc12	> 219	> 219	–
O=C(OOC(=O)c1ccccc1)c1ccccc1	> 200	> 200	–
CNc1ccccc1S(=O)(=O)c1ccccc1[N+](=O)[O-]	3.55	47.9	–
C=C[C@H]1C=Cc2ccccc2[C@]1(C=O)CCC1(C)OCCO1	> 832	676	–
O=C(O)c1ccc(NNc2cc(=O)[nH]c(=O)[nH]2)cc1	> 200	107	–
O=C1c2scc(-c3ccccc3)c2-n2cccc21	> 200	17.8	–
COC(=O)c1[nH]cnc1O	> 200	> 200	–
COc1ccc(/C=C/C(=O)c2cc(OC)cc(OC)c2)cc1	> 200	0.955	–
O=C(O)CCSC(=O)Nc1ccc([N+](=O)[O-])cc1	–	–	inactive
C[N+]1(C)C/C(=C\c2ccc(O)cc2)C(=O)/C(=C/c2ccc(O)cc2)C1	> 77.6	56.2	–
CN1C/C(=C\c2ccc(N(C)C)cc2)C(=O)/C(=C/c2ccc(N(C)C)cc2)C1	> 100	> 100	–
O=c1c2ccccc2oc2cc(C(O)c3ccccc3)ccc12 (configuration not stated)	> 200	97.7	–
OCc1cc2c(cc1CO)OCC2	–	–	inactive
O=C1Nc2ccccc2NC(=O)C1(O)O	> 200	> 200	–
CC(=O)C1CCC2C3CC4OCC5(CCC(O)CC45Br)C3CCC12C (configuration not stated)	> 200	40.7	–
CCNC(=O)CCN(C(=O)O)S(=O)(=O)c1ccc(NC(=O)c2ccccc2)cc1	> 603	> 603	–
Brc1ccccc1CCc1ncc[nH]1	> 575	234	–
NNC(=S)N/N=C(/C(=O)Nc1ccc([N+](=O)[O-])cc1)c1nc2ccc([N+](=O)[O-])cc2[nH]c1=O	> 145	> 145	–
CCOC(=O)C(=O)NNc1cc(=O)n(C)c(=O)n1C	> 200	> 200	–
c1nc2nc3c(cn2n1)CCCC3	–	–	inactive

Structure (SMILES)	EC50 [µM]	IC50 [µM]	outcome
C[N+]1(C)CCC(OC(=O)C(O)(c2ccccc2)C2CCCC2)C1 (configuration not stated)	> 200	> 200	–
COC1=CC(=O)c2nccc(C)c2C1=O	–	–	inactive
N#C/C(=C/NC(=S)Nc1ccc(Cl)c(Cl)c1)C(N)=O	> 200	38	–
O=C(NNc1nc2cccnc2n2ccnc12)c1cnccn1	> 1	0.135	–
NC(N)=NS(=O)(=O)c1ccc(NNc2c3ccccc3nc3c(C(=O)Nc4ccc(S(N)(=O)=O)cc4)cccc23)cc1	> 200	10.2	–
CC1CC/C(=C\c2ccc(F)cc2)C2=C1C(c1ccc(F)cc1)NC(=S)N2 (configuration not stated)	> 200	16.6	–
O=S(O)CCCCSSCc1ccccc1CSSCCCCS(=O)O	–	–	inactive
CSc1c(C#N)c(N)n(-c2ccc(Cl)cc2)c(=O)c1C#N	67.6	72.4	–
Cc1ccc(NC(=S)SCCC(=O)O)cc1	–	–	inactive
CN(CCC#N)c1ccc(/C=C(\C#N)c2ccc(Cl)cc2)cc1	> 200	15.5	–
CC1CC(C)(C)C2=NCCN21 (configuration not stated)	> 1620	> 1620	–
CCOC(=O)CCC(NC(=O)OCc1ccccc1)C(=O)NC(CCC(=O)OCC)C(=O)NC(CCC(=O)OCC)C(=O)NC(CCC(=O)OCC)C(=O)NC(CCC(=O)OCC)C(=O)NC(Cc1ccc([N+](=O)[O-])cc1)C(=O)NC(CCC(=O)OCC)C(=O)NC(CCC(=O)OCC)C(=O)NC(CCC(=O)OCC)C(=O)NC(CCC(=O)OCC)C(=O)NC(CCC(=O)OCC)C(=O)OCC (configuration not stated) (Cbz-E(OEt)E(OEt)E(OEt)E(OEt)E(OEt)[Phe(4-NO2)]E(OEt)E(OEt)E(OEt)E(OEt)E(OEt)-OEt; configuration not given here)	> 50.1	> 50.1	–
C/C1=C/COC(=O)CC/C(C)=C/CC1	–	–	inactive
COc1cc(OC)c(SSCCCCS(=O)O)c(OC)c1	–	–	inactive
c1ccc2c(c1)Sc1ccccc1C2=C1c2ccccc2Sc2ccccc21	> 200	10.7	–
Cn1cnc(N)c(N=O)c1=O	> 200	> 200	–
CCN(CCO)CCCC(C)Nc1ccnc2cc(Cl)ccc12 (configuration not stated)	> 200	64.6	–
CN1CCN(CCSSCCN2CCN(C)CC2)CC1	> 200	> 200	–
CC(C)c1cc2c(O)c(c1)Cc1cc(C(C)C)cc(c1O)Cc1cc(C(C)C)cc(c1O)Cc1cc(C(C)C)cc(c1O)C2	> 6.31	> 6.31	–
